From article PMC11557217, “Insights into the Functioning of the D-amino Acid Transaminase from Haliscomenobacter Hydrossis via a Structural and Spectral Analysis of its Complex with 3-Aminooxypropionic Acid” (Acta Naturae, 2024)

Experiments:
TA_Halhy [1] = biological target: T1, TA_Halhy (Haliscomenobacter hydrossis, UniProt F4KWH0); experiment: transamination, lactate dehydrogenase-coupled NADH assay; substrate inhibition curve; format: biochemical; details: 2.5 mM pyruvate, 30 μM PLP, 50 mM potassium phosphate, pH 8.0, 40 °C
T1 construct: gene Halhy_2446; PLP holoenzyme; homodimer
T1 sequence (F4KWH0 1-281): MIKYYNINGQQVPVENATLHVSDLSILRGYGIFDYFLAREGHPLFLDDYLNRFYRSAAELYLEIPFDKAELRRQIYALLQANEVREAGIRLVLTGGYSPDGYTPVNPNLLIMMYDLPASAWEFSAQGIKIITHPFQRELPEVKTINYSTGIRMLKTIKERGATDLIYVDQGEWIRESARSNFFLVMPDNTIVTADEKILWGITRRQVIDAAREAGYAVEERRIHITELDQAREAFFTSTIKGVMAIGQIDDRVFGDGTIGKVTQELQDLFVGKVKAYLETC

TA_Halhy [2] = biological target: T1, TA_Halhy; experiment: X-ray crystal structure ([…] Å, co-crystallization); UV/Vis spectra of oxime formation; format: binding; details: covalent: forms oxime with the PLP cofactor; crystals at pH 5.5, 12 mM compound, 6 mM PLP; spectra at pH 8.0, 25 °C; carboxyl group in O-pocket; reversible
TA_Halhy [3] = biological target: T1, TA_Halhy; experiment: transamination; substrate inhibition curve; format: biochemical; details: 40 mM D-alanine, 30 μM PLP, 50 mM potassium phosphate, pH 8.0, 40 °C
TA_Halhy [4] = biological target: T1, TA_Halhy; experiment: UV/Vis spectra and activity restoration of the apoenzyme on adding PLP; format: biochemical; details: 50 mM potassium phosphate, pH 8.0; covalent internal aldimine in the holoenzyme

Compound: N[C@H](CCC(=O)O)C(=O)O [D-glutamic acid]
- transamination, lactate dehydrogenase-coupled NADH assay; substrate inhibition c (TA_Halhy [1]): TA_Halhy is inhibited by D-glutamic acid and α-ketoglutarate at substrate concentrations as low as millimolars

Compound: NOCCC(=O)O [3-aminooxypropionic acid, 3-(aminooxy)propanoic acid]
- X-ray crystal structure (1.70 Å, co-crystallization); UV/Vis spectra of oxime fo (TA_Halhy [2]): the structure of the TA_Halhy complex has been solved and refined

Compound: O=C(O)CCC(=O)C(=O)O [α-ketoglutarate]
- transamination; substrate inhibition curve (TA_Halhy [3]): TA_Halhy is inhibited by D-glutamic acid and α-ketoglutarate at substrate concentrations as low as millimolars

Compound: Cc1ncc(COP(=O)(O)O)c(C=O)c1O [pyridoxal 5'-phosphate]
- UV/Vis spectra and activity restoration of the apoenzyme on adding PLP (TA_Halhy [4]): Holoenzyme was formed, and TA_Halhy activity was fully restored, after PLP was added
